Data set [1] concerns acutely dissociated and purified rat OPCs. Description: Acute OL differentiation assay (MBP expression/cell, immunofluorescent image quantification). The settings on record: Rattus norvegicus, sheet "All OLga data". The data set is classed as cell-based. In a few lines:
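This acute differentiation assay used purified rat OPCs from postnatal day 6–7 pups, seeded into PDL/laminin-coated 96-well plates in differentiation medium lacking PDGF and FGF. Compounds were applied in quadruplicate after a 1–2 h preincubation at 37 °C, 10 % CO2, with 0.1 % DMSO negative and 40 ng/ml T3 positive controls in eight wells. After fixation on DIV4, anti-MBP immunofluorescence images yielded MBP expression/cell.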

The subject of another data set is expanded OPCs. Description: cells. Conditions: for 0.1 µM (% DMSO) / 1 µM (% DMSO) / 10 µM (% DMSO): alamarBlue viability of expanded OPCs, relative to DMSO control; for 0.1 µM (% DMSO): compound at 0.1 µM; for 1 µM (% DMSO): compound at 1 µM; for 10 µM (% DMSO): compound at 10 µM; for viability at 0.1 µM / viability at 1 µM / viability at 10 µM: Rattus norvegicus, 72 h. In a few lines:
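Toxicity screen: compounds added at 0.1, 1 and 10 µM to PDGF-AA-expanded OPCs in 96-well plates, 3-day incubation at 37 °C, 10% CO2, then alamarBlue 1:10 for 4 h with fluorescence readout. Results set screening doses of 10/2, 2/0.4 or 0.4/0.08 µM.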
(Resazurin is reduced to fluorescent resorufin, in cell work by metabolically active cells.)

The mark [2] stands for this setting: test compound at 2 uM, NCC library screen, relative to quetiapine, read-out: 2 uM (% Quet).
Setting [3] is: test compound at 10 uM, NCC library screen, relative to quetiapine, read-out: 10 uM (% Quet).
The mark [4] stands for this setting: 2 uM test compound, relative to quetiapine, read-out: OL differentiation, 2 uM (% Quet).
The mark [5] stands for this setting: 10 uM test compound, relative to quetiapine, read-out: OL differentiation, 10 uM (% Quet).
The mark [6] stands for this setting: read-out: 0.1 µM (% DMSO), alamarBlue viability, NCC library compound at 0.1 µM, sheet "All Tox data".
Setting [7] is: read-out: 1 µM (% DMSO), alamarBlue viability, NCC library compound at 1 µM, sheet "All Tox data".
[8] abbreviates: read-out: 10 µM (% DMSO), alamarBlue viability, NCC library compound at 10 µM, sheet "All Tox data".
The mark [9] stands for this setting: read-out: 0.1 µM (% DMSO), alamarBlue viability of expanded OPCs, compound at 0.1 µM, sheet All Tox data.
The mark [10] stands for this setting: read-out: 1 µM (% DMSO), alamarBlue viability of expanded OPCs, compound at 1 µM, sheet All Tox data.
[11] abbreviates: read-out: 10 µM (% DMSO), alamarBlue viability of expanded OPCs, compound at 10 µM, sheet All Tox data.

Where two headings read alike, the source gives them in different places.

For `CCN1CCN(C(=O)N[C@@H](C(=O)N[C@@H]2C(=O)N3[C@@H]2SC(C)(C)[C@@H]3C(=O)O)c2ccccc2)C(=O)C1=O` [Piperacillin], in data set [1] (setting [2]), the activation at 2 µM is 2%. Further, the activation at 10 µM in data set [1] (setting [3]) is -7.9%. In the data set with expanded OPCs, the “0.1 µM (% DMSO)” value came out at 89.0 % DMSO, the “1 µM (% DMSO)” value was determined as 88.3 % DMSO and the “10 µM (% DMSO)” value came to 88.0 % DMSO.

On to `Cc1nc2ccccn2c(=O)c1CCN1CCC(C(=O)c2ccc(F)cc2)CC1` [Pirenperone], for which the activation at 2 µM in data set [1] (setting [4]) came out at 31.6%. Also, in data set [1] (setting [5]), the activation at 10 µM is 62.7%. Also, the viability (usually a read-out of living cells in per cent, often relative to untreated cells) at 0.1 µM in the data set on expanded OPCs (setting [6]) was 102%. Moreover, in the data set on expanded OPCs (setting [7]), the viability at 1 µM is 92.1%. Also, the viability at 10 µM with expanded OPCs (setting [8]) was determined as 83%.

Take `c1cnc(N2CCN(Cc3ccc4c(c3)OCO4)CC2)nc1` [Piribedil]: the activation at 2 µM in data set [1] (setting [4]) came out at 23.4%. Also, the activation at 10 µM in data set [1] (setting [5]) was 29.9%. Further, the viability at 0.1 µM in the data set with expanded OPCs (setting [9]) worked out at 88.5%. Besides, in the data set on expanded OPCs (setting [10]), the viability at 1 µM came to 100%. The viability at 10 µM with expanded OPCs (setting [11]) worked out at 103%.

Regarding `CN1C(C(=O)Nc2ccccn2)=C(O)c2ccccc2S1(=O)=O` [Piroxicam], the activation at 2 µM in data set [1] (setting [2]) stood at 12.1%. The activation at 10 µM in data set [1] (setting [3]) was -2.1%. For the same molecule, in the data set on expanded OPCs (setting [6]), the viability at 0.1 µM was determined as 91.3%. Further, the viability at 1 µM in the data set on expanded OPCs (setting [7]) was 88.3%. Besides, in the data set with expanded OPCs (setting [8]), the viability at 10 µM was determined as 87.1%.

For the molecule `CN1CCC(=C2c3ccccc3CCc3sccc32)CC1` [Pizotyline], in data set [1] (0.4 uM test compound, relative to quetiapine, read-out: OL differentiation, 0.4 uM (% Quet)), the activation at 0.4 µM is -8.8%. Besides, the activation at 2 µM in data set [1] (setting [4]) is -30.6%. In addition, the viability at 0.1 µM in the data set with expanded OPCs (setting [9]) came out at 86.7%. Further, the viability at 1 µM with expanded OPCs (setting [10]) turned out to be 65.3%. In the data set with expanded OPCs (setting [11]), the viability at 10 µM turned out to be 24.6%.

`OC[C@H]1O[C@@H](Oc2cc(O)cc(/C=C/c3ccc(O)cc3)c2)[C@H](O)[C@@H](O)[C@@H]1O` [Polydatin]: the activation at 2 µM in data set [1] (setting [4]) is -15%. The activation at 10 µM in data set [1] (setting [5]) is -20.9%. Further, the viability at 0.1 µM in the data set with expanded OPCs (setting [9]) stood at 106%. Moreover, the viability at 1 µM with expanded OPCs (setting [10]) was 110%. For the same molecule, the viability at 10 µM in the data set with expanded OPCs (setting [11]) amounted to 113%.

As to `C[n+]1ccccc1/C=N/O` [Pralidoxime], the activation at 2 µM in data set [1] (setting [2]) was -5%. In addition, the activation at 10 µM in data set [1] (setting [3]) is -3.8%. In addition, the viability at 0.1 µM with expanded OPCs (setting [6]) was 90.3%. The viability at 1 µM with expanded OPCs (setting [7]) came to 93.1%. Also, the viability at 10 µM with expanded OPCs (setting [8]) worked out at 89.1%.

Regarding `CC[C@H](C)C(=O)O[C@H]1C[C@H](O)C=C2C=C[C@H](C)[C@H](CC[C@@H](O)C[C@@H](O)CC(=O)O)[C@H]21` [Pravastatin], the activation at 2 µM in data set [1] (setting [4]) was 8.6%. Besides, the activation at 10 µM in data set [1] (setting [5]) is -87.5%. In addition, the viability at 0.1 µM in the data set on expanded OPCs (setting [9]) is 113%. Moreover, the viability at 1 µM in the data set with expanded OPCs (setting [10]) came out at 124%. In addition, the viability at 10 µM in the data set on expanded OPCs (setting [11]) came out at 151%.

As to `O=C(C1CCCCC1)N1CC(=O)N2CCc3ccccc3C2C1` (stereo not drawn) [Praziquantel], in data set [1] (setting [2]), the activation at 2 µM turned out to be 0.6%. Further, the activation at 10 µM in data set [1] (setting [3]) is -9.5%. In the data set on expanded OPCs, the “0.1 µM (% DMSO)” value was 85.2 % DMSO, the “1 µM (% DMSO)” value turned out to be 85.1 % DMSO and the “10 µM (% DMSO)” value is given as 85.6 % DMSO.

With `CC(=O)OCC(=O)[C@@]1(O)CC[C@H]2[C@@H]3CCC4=CC(=O)C=C[C@]4(C)[C@H]3[C@@H](O)C[C@@]21C` [Prednisolone acetate], the activation at 2 µM in data set [1] (test compound at 2 uM, MBP expression relative to quetiapine, NCC library screen, read-out: 2 uM (% Quet)) is -3.3%. In addition, the activation at 10 µM in data set [1] (test compound at 10 uM, MBP expression relative to quetiapine, NCC library screen, read-out: 10 uM (% Quet)) is -37.1%. In addition, in the data set with expanded OPCs, the “0.1 µM (% DMSO)” value is reported as 112.3 % DMSO, the “1 µM (% DMSO)” value was found to be 112.6 % DMSO and the “10 µM (% DMSO)” value stood at 109.9 % DMSO.

Turning to `C[C@]12C=CC(=O)C=C1CC[C@@H]1[C@@H]2[C@@H](O)C[C@@]2(C)[C@H]1CC[C@]2(O)C(=O)COC(=O)CCC(=O)O` [Prednisolone hemisuccinate], the activation at 2 µM in data set [1] (setting [2]) turned out to be 10.2%. Also, the activation at 10 µM in data set [1] (setting [3]) stood at 9.3%. Besides, the viability at 0.1 µM in the data set with expanded OPCs (setting [6]) was 107%. Further, the viability at 1 µM in the data set with expanded OPCs (setting [7]) came to 95%. The viability at 10 µM with expanded OPCs (setting [8]) came to 94.3%.

In the case of `C[C@]12C=CC(=O)C=C1CC[C@@H]1[C@@H]2[C@@H](O)C[C@@]2(C)[C@H]1CC[C@]2(O)C(=O)CO` [Prednisolone], the activation at 2 µM in data set [1] (setting [2]) was -21.9%. Also, the activation at 10 µM in data set [1] (setting [3]) is -15.7%. Further, in the data set with expanded OPCs, the “0.1 µM (% DMSO)” value is 117.5 % DMSO, the “1 µM (% DMSO)” value is 112.6 % DMSO and the “10 µM (% DMSO)” value worked out at 109.9 % DMSO.

The values are drawn from publication PMC5011342, “A high throughput drug screening assay to identify compounds that promote oligodendrocyte differentiation using acutely dissociated and purified oligodendrocyte precursor cells” (BMC Research Notes, 2016).
